Experimental data reported in PubChem BioAssay AID330 (DTP/NCI, 2004).
Several values for one entry are separate records, joined by “and”; a condition that tells them apart may be missing. Equal values may be shown once. Inconclusive results and toxic doses are left out. How the source made its calls: active means survival T/C of 150% or more; inactive means T/C below 125% in these data.

System: P388 leukemia ip, CD2F1 mice, survival T/C
Experiment: NCI In Vivo Anticancer Drug Screen. Data for tumor model P388 Leukemia (intraperitoneal) in CD2F1 (CDF1) mice
Settings: endpoint: median survival time, higher = longer survival
Summary of the method: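 Mice carrying the transplanted tumor received test compound or vehicle. Survival was recorded in each group, and the value is the treated-group measurement divided by that of the vehicle-treated control group.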

[1] = dose: 50.0 mg/kg/injection, schedule: Q01DX009 (ip), vehicle: Klucel (hydroxypropylcellulose) (HPC)
[2] = dose: 100.0 mg/kg/injection, schedule: Q01DX009 (ip), vehicle: Klucel (hydroxypropylcellulose) (HPC)
[3] = dose: 200.0 mg/kg/injection, schedule: Q01DX009 (ip), vehicle: Klucel (hydroxypropylcellulose) (HPC)
[4] = dose: 50.0 mg/kg/injection, schedule: Q01DX005 (ip), vehicle: Klucel (hydroxypropylcellulose) (HPC)
[5] = dose: 100.0 mg/kg/injection, schedule: Q01DX005 (ip), vehicle: Klucel (hydroxypropylcellulose) (HPC)
[6] = dose: 200.0 mg/kg/injection, schedule: Q01DX005 (ip), vehicle: Klucel (hydroxypropylcellulose) (HPC)
[7] = dose: 100.0 mg/kg/injection, schedule: Q04DX002 (ip), vehicle: Klucel (hydroxypropylcellulose) (HPC)
[8] = dose: 200.0 mg/kg/injection, schedule: Q04DX002 (ip), vehicle: Klucel (hydroxypropylcellulose) (HPC)
[9] = dose: 400.0 mg/kg/injection, schedule: Q04DX002 (ip), vehicle: Klucel (hydroxypropylcellulose) (HPC)
[10] = dose: 25.0 mg/kg/injection, schedule: Q01DX009 (ip), vehicle: saline with Tween-80
[11] = dose: 50.0 mg/kg/injection, schedule: Q01DX009 (ip), vehicle: saline with Tween-80
[12] = dose: 100.0 mg/kg/injection, schedule: Q01DX009 (ip), vehicle: saline with Tween-80
[13] = dose: 200.0 mg/kg/injection, schedule: Q01DX009 (ip), vehicle: saline with Tween-80
[14] = dose: 25.0 mg/kg/injection, schedule: Q01DX009 (ip), vehicle: saline
[15] = dose: 100.0 mg/kg/injection, schedule: Q04DX003 (ip), vehicle: Klucel (hydroxypropylcellulose) (HPC)
[16] = dose: 200.0 mg/kg/injection, schedule: Q04DX003 (ip), vehicle: Klucel (hydroxypropylcellulose) (HPC)

Measured: T/C

O=C(O)/C=C\C(=O)NCCCCCC(=O)O
inactive: [1] 102 % of control | [2] 103 % of control | [3] 105 % of control

CC(C)(C)c1cc2c(O)c(c1)Cc1cc(C(C)(C)C)cc(c1O)Cc1cc(C(C)(C)C)cc(c1O)Cc1cc(C(C)(C)C)cc(c1O)C2
inactive: [4] 100 % of control | [5] 102 % of control | [6] 96 % of control

O=C(O)c1ccnc2nc[nH]c12
inactive: [7] 100 % of control | [8] 106 % of control | [9] 100 % of control

O=C/C=C/C=C/C=C/c1ccccc1
inactive: dose: 60.0 mg/kg/injection, schedule: Q01DX005 (ip), vehicle: distilled water + alcohol 100 % of control | dose: 120.0 mg/kg/injection, schedule: Q01DX005 (ip), vehicle: distilled water + alcohol 100 % of control | dose: 240.0 mg/kg/injection, schedule: Q01DX005 (ip), vehicle: distilled water + alcohol 96 % of control

CN(C)c1ccc(C=C2C(=O)NC(=O)NC2=O)cc1
inactive: [10] 118 % of control | [11] 113 % of control | [12] 116 % of control | [13] 106 % of control

C(=C\c1ccccc1)/C[P+](c1ccccc1)(c1ccccc1)c1ccccc1
inactive: dose: 0.62 mg/kg/injection, schedule: Q01DX009 (ip), vehicle: saline 90 % of control | dose: 0.63 mg/kg/injection, schedule: Q01DX009 (ip), vehicle: saline with Tween-80 100 % of control | dose: 1.25 mg/kg/injection, schedule: Q01DX009 (ip), vehicle: saline with Tween-80 122 % of control | dose: 1.25 mg/kg/injection, schedule: Q01DX009 (ip), vehicle: saline 93 % of control | dose: 2.5 mg/kg/injection, schedule: Q01DX009 (ip), vehicle: saline with Tween-80 109 % of control | dose: 2.5 mg/kg/injection, schedule: Q01DX009 (ip), vehicle: saline 90 % of control | dose: 5.0 mg/kg/injection, schedule: Q01DX009 (ip), vehicle: saline 98 % of control

CCN(CC)C1(C(F)C(F)(F)F)OCC2(CO1)COC(C(F)C(F)(F)F)(N(CC)CC)OC2 (configuration not stated)
inactive: dose: 60.0 mg/kg/injection, schedule: Q01DX005 (ip), vehicle: saline with Tween-80 98 % of control | dose: 120.0 mg/kg/injection, schedule: Q01DX005 (ip), vehicle: saline with Tween-80 104 % of control | dose: 240.0 mg/kg/injection, schedule: Q01DX005 (ip), vehicle: saline with Tween-80 91 % of control

COc1ccc(NC(CCN2CCN(CCC(=NC(C)(C)C)Nc3ccc(OC)cc3)CC2)=NC(C)(C)C)cc1
inactive: [10] 97 % of control | [14] 110 % of control | [4] 98 % of control | [1] 110 % of control | [11] 97 % of control | dose: 50.0 mg/kg/injection, schedule: Q01DX009 (ip), vehicle: saline 109 % of control | [5] 103 % of control | [2] 110 % of control | [12] 107 % of control | dose: 100.0 mg/kg/injection, schedule: Q01DX009 (ip), vehicle: saline 97 % of control | [13] 116 % of control

CCOC(=O)CSc1nnc(-c2ccc3c(c2)OCO3)o1
inactive: dose: 62.5 mg/kg/injection, schedule: Q01DX001 (ip), vehicle: Klucel (hydroxypropylcellulose) (HPC) 102 % of control | dose: 125.0 mg/kg/injection, schedule: Q01DX001 (ip), vehicle: Klucel (hydroxypropylcellulose) (HPC) 105 % of control | dose: 250.0 mg/kg/injection, schedule: Q01DX001 (ip), vehicle: Klucel (hydroxypropylcellulose) (HPC) 108 % of control

Cc1ccc(S(=O)(=O)NC(=O)Nn2c(C)nc3ccccc3c2=O)cc1
inactive: [4] 103 % of control | [5] 102 % of control | [6] 106 % of control

CC(C)=CCC/C(C)=C/COc1ccc(/C=C2/C(=O)N(O)[C@@H](C)C(=O)N2O)cc1
inactive: dose: 6.25 mg/kg/injection, schedule: Q01DX009 (ip), vehicle: saline 123 % of control and 97 % of control | dose: 12.5 mg/kg/injection, schedule: Q01DX009 (ip), vehicle: saline 99 % of control | [14] 108 % of control

O=C1SC/C(=N\N=c2/scc(-c3ccc(Br)cc3)n2-c2ccccc2)N1Cc1ccccc1
inactive: [7] 92 % of control | [8] 91 % of control | [9] 89 % of control

CC(=O)N1CCc2ccccc2C1C1NCCc2ccccc21 (configuration not stated)
inactive: [15] 95 % of control | [16] 94 % of control

CN1C(=O)C(=O)N(CCCN2CCN(CCCN3C(=O)C(=O)N(C)C3=O)CC2)C1=O
inactive: [1] 104 % of control | [2] 106 % of control | [3] 98 % of control

CCCNC(c1ccc(N(CC)CC)cc1)C(Cl)(Cl)Cl (configuration not stated)
inactive: dose: 50.0 mg/kg/injection, schedule: Q01DX005 (ip), vehicle: saline 103 % of control | dose: 100.0 mg/kg/injection, schedule: Q01DX005 (ip), vehicle: saline 106 % of control | dose: 200.0 mg/kg/injection, schedule: Q01DX005 (ip), vehicle: saline 96 % of control

CC1(C)OCC(C(O)c2nc3ccccc3nc2C(=O)Nc2ccccc2N)O1 (configuration not stated)
inactive: dose: 100.0 mg/kg/injection, schedule: Q01DX001 (ip), vehicle: saline with Tween-80 97 % of control | dose: 200.0 mg/kg/injection, schedule: Q01DX001 (ip), vehicle: saline with Tween-80 92 % of control | dose: 400.0 mg/kg/injection, schedule: Q01DX001 (ip), vehicle: saline with Tween-80 86 % of control

O=C1NC(=O)C23CCCCc4cccc(c42)C(=O)C13 (configuration not stated)
inactive: dose: 25.0 mg/kg/injection, schedule: Q01DX005 (ip), vehicle: water 100 % of control | dose: 50.0 mg/kg/injection, schedule: Q01DX005 (ip), vehicle: water 99 % of control | dose: 100.0 mg/kg/injection, schedule: Q01DX005 (ip), vehicle: water 103 % of control | dose: 200.0 mg/kg/injection, schedule: Q01DX005 (ip), vehicle: water 100 % of control

C/C=C1/CN2CCc3c([nH]c4ccccc34)C2CC1C(Cc1c[n+]2c(c3[nH]c4ccccc4c13)CC1C(C(=O)OC)=COC(C)C1C2)C(=O)OC (configuration not stated)
inactive: [10] 91 % of control | [11] 89 % of control | [12] 90 % of control

[Be]=[Se]
inactive: dose: 7.5 mg/kg/injection, schedule: Q01DX005 (ip), vehicle: other 97 % of control | dose: 15.0 mg/kg/injection, schedule: Q01DX005 (ip), vehicle: other 103 % of control and 108 % of control

O=C(C/[N+]([O-])=C/c1ccccc1)OCc1ccccc1
inactive: dose: 12.5 mg/kg/injection, schedule: Q01DX009 (ip), vehicle: other 112 % of control | dose: 25.0 mg/kg/injection, schedule: Q01DX009 (ip), vehicle: other 112 % of control | dose: 50.0 mg/kg/injection, schedule: Q01DX009 (ip), vehicle: other 95 % of control | dose: 100.0 mg/kg/injection, schedule: Q01DX009 (ip), vehicle: other 88 % of control | dose: 200.0 mg/kg/injection, schedule: Q01DX009 (ip), vehicle: other 104 % of control

C[C@H]1CC(c2ccc(Cl)cc2)[C@@H](c2ccccc2)C(=O)O1 (some centres not stated)
inactive: [15] 92 % of control | [16] 93 % of control | dose: 400.0 mg/kg/injection, schedule: Q04DX003 (ip), vehicle: Klucel (hydroxypropylcellulose) (HPC) 92 % of control
